Data: paper PMC9171722, “An Enzyme with High Catalytic Proficiency Utilizes Distal Site Substrate Binding Energy to Stabilize the Closed State but at the Expense of Substrate Inhibition” (ACS Catalysis, 2022)

Legend:
[1] = target: T1, β-phosphoglucomutase (βPGM WT) (Lactococcus lactis, UniProt P71447); parameters: gene pgmB
[2] = target: T1, β-phosphoglucomutase (βPGM WT); experiment: enzyme kinetics (kcat/Km), G6PDH coupled assay; […] NMR time course; format: biochemical; parameters: gene pgmB; full length
[3] = target: T2, β-phosphoglucomutase (βPGM R49K) (Lactococcus lactis, UniProt P71447, R49K); experiment: as above; format: biochemical
T2 construct: gene pgmB; full length

[4] = target: T3, β-phosphoglucomutase (βPGM R49A) (Lactococcus lactis, UniProt P71447, R49A); experiment: as above; format: biochemical
T3 construct: gene pgmB; full length

Compound | crystal structure (1.8 Å), open conformation [1] | enzyme kinetics (kcat/Km), G6PDH coupled assay; 31P NMR time course [2] [s^–1·μM^–1] | enzyme kinetics (kcat/Km), G6PDH coupled assay; 31P NMR time course [3] [s^–1·μM^–1] | enzyme kinetics (kcat/Km), G6PDH coupled assay; 31P NMR time course [4] [s^–1·μM^–1]
O=P(O)(O)O [Pi, phosphate] | a phosphate anion coordinated in the distal site by the guanidinium group of R49 |  |  | 
O=P(O)(O)O[C@@H]1O[C@H](CO)[C@@H](O)[C@H](O)[C@H]1O [βG1P, β-glucose 1-phosphate] |  | 0.29 | 0.05 | 0.02
